{
  "source": "paper PMC8400955",
  "about": "(Pharmaceuticals, 2021)",
  "key": {"CYP3A4": {"target": "CYP3A4 (Homo sapiens, UniProt P08684)", "sequence (P08684 whole entry)": "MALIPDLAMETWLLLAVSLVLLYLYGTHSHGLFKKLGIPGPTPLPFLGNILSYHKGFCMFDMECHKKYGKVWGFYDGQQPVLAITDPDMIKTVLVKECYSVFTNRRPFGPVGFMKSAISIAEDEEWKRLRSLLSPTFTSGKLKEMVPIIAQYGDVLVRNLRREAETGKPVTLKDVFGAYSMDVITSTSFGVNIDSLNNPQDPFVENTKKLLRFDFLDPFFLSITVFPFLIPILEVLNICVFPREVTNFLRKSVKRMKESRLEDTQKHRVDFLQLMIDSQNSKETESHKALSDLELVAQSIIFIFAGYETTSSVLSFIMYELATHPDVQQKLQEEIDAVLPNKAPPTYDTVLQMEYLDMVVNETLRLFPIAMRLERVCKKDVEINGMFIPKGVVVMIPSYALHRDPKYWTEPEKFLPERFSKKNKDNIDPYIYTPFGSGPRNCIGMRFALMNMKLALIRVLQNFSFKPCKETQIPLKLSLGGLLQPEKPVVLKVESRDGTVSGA", "test": "CYP inhibition in human liver microsomes, CYP3A4", "format": "in vitro ADME", "set-up": "2D6, and 3A4) in human liver microsomes (0.2 mg/mL) in the presence of NADPH; from tissue; host or cells: human liver microsomes", "conditions": "HLM", "experimental": ". The inhibition of CYP2B6 and 3A4 (when midazolam was used as the substrate) by ZB716 was not observed. The inhibitory potential of ZB716 on human CYP enzyme activities appears relatively low.\nThe final concentrations of ZB716 in the incubation system were 0, 0.05, 0.15, 0.5, 1.5, 5, and 15 µM (final organic solvent concentration ≤ 1%). […] . […] The concentrations of the isoform-specific metabolites derived from marker substrates were measured by UPLC–MS/MS. The IC50 values were calculated from the percentages of the rate of the metabolite formation relative to non-inhibited controls vs. the concentrations of ZB716 or positive control inhibitors. All incubations were performed in triplicate. The mean of the enzyme activity (% of non-inhibited control) for each concentration was plotted against the log inhibitor concentration, and fitted to an IC50 curve."}, "CYP1A2": {"target": "T1, CYP1A2 (Homo sapiens, UniProt P05177)", "T1 sequence (P05177 1-516)": "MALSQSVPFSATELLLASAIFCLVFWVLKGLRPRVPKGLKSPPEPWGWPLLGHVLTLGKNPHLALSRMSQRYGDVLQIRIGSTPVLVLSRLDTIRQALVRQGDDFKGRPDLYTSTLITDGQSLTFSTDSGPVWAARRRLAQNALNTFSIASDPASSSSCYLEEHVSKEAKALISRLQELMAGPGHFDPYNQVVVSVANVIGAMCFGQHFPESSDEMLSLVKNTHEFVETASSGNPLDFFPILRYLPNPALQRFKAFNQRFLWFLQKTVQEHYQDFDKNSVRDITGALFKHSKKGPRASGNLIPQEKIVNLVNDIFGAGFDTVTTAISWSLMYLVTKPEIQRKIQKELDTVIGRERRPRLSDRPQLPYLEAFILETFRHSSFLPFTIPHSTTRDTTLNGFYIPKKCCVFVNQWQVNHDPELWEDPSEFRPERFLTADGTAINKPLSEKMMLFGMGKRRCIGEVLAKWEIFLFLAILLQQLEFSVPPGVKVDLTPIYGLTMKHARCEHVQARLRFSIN", "test": "CYP phenotyping, recombinant CYP1A2"}, "[1]": {"test": "4-week repeat-dose toxicity/TK study in rats", "format": "in vivo, Sprague Dawley rats", "conditions": "for AUC(0-t) / Cmax / Tmax: Sprague Dawley (Crl: CD (SD)), rat, plasma, po", "experimental": "The PK of ZB716 was investigated in a 4-week repeat-dose toxicity study in rats. Groups of Sprague Dawley rats (n = 10/sex/group; n = 3/sex/TK group) were orally administered ZB716 (5% EtOH, 15% PG, 5% Solutol, and 75% of 40% HP-β-CD in DI water) at dose levels of 25, 100, and 400 mg/kg/day for 4 weeks. The plasma concentration of ZB716 was measured at various times through to 24 h post-dose on days 1 and 28.\nFour-to-six-week-old Sprague Dawley rats (Crl: CD (SD)) (SPF/VAF) were purchased from Beijing Vital River Laboratory Animal Technology, Co. Ltd.). Six-month-old beagle dogs were purchased from Beijing Marshall Biotechnology Co. Ltd. Animals were quarantined/acclimated for 2–6 weeks prior to dose initiation. Both Sprague Dawley rats and beagle dogs were given oral administration of ZB716 (20% PG, 5% Solutol, and 75% of 40% HP-β-CD in water) at different dose levels. After treatment with the test articles, whole blood was collected from each study animal by puncture of the tail vein (0.4 mL of whole blood from rats) and/or the peripheral vein (0.6 mL of whole blood from dogs) into tubes containing K2EDTA at each timepoint: pre-dose, and 0.5, 1, 2, 4, 8, and 24 h post-dose. The plasma samples were divided into 2 aliquots (approximately equal in volume) and stored frozen at −75 ± 15 °C within 2 h of the collection until analysis at Pharmaron, China.\nThe stock solution of ZB716 (5.0 mg/mL) and ZB716-d6 (1 mg/mL) in ACN:DI Water = 1:1 was prepared and stored at −20 ± 5 °C. The desired serial concentrations of working reference analyte solutions were achieved by diluting a stock analyte solution with 50% acetonitrile (0.1% formic acid) in water solution. The bioanalytical LC–MS/MS method was validated for quantitative determination of ZB716 in Sprague Dawley rat plasma and beagle dog plasma, with acceptable selectivity, sensitivity, calibration curve, precision, and accuracy. This method is applicable for the determination of ZB716 in Sprague Dawley rat plasma and beagle dog plasma, with a lower limit of quantification of 20.0 ng/mL, and an upper limit of quantification of 10,000 ng/mL.\nFive microliters of diluted supernatant was injected into the LC–MS/MS system (Shimadzu LC30AD HPLC system with a SynergiTM 4 μm Fusion-RP 80 Å (50 × 2 mm) column using gradient elution and a Triple Quad 5500 mass spectrometer) for quantitative analysis. The mobile phases used were 0.1% formic acid in deionized water and 0.1% formic acid in acetonitrile. The pharmacokinetic parameters T1/2 (the biological half-life), Cmax (maximal concentration), Tmax (time at which Cmax is observed), and AUC (area under the plasma concentration–time curve) were calculated from the plasma concentration versus time data using WinNonlin (Phoenix^TM, version 8.1, Mountain View, CA, USA). All PK studies were conducted by Pharmaron in Beijing, China."}, "[2]": {"conditions": "female, 25 mg/kg/day, day 1, PO 25 mg/kg/day, Female"}, "[3]": {"conditions": "female, 25 mg/kg/day, day 28, PO 25 mg/kg/day, Female"}, "[4]": {"conditions": "female, 100 mg/kg/day, day 1, PO 100 mg/kg/day, Female"}, "[5]": {"conditions": "female, 100 mg/kg/day, day 28, PO 100 mg/kg/day, Female"}, "[6]": {"conditions": "female, 400 mg/kg/day, day 1, PO 400 mg/kg/day, Female"}, "[7]": {"conditions": "female, 400 mg/kg/day, day 28, PO 400 mg/kg/day, Female"}, "[8]": {"conditions": "male, 25 mg/kg/day, day 1, PO 25 mg/kg/day, Male"}, "[9]": {"conditions": "male, 25 mg/kg/day, day 28, PO 25 mg/kg/day, Male"}, "[10]": {"conditions": "male, 100 mg/kg/day, day 1, PO 100 mg/kg/day, Male"}, "[11]": {"conditions": "male, 100 mg/kg/day, day 28, PO 100 mg/kg/day, Male"}, "[12]": {"conditions": "male, 400 mg/kg/day, day 1, PO 400 mg/kg/day, Male"}, "[13]": {"conditions": "male, 400 mg/kg/day, day 28, PO 400 mg/kg/day, Male"}},
  "note": "Entries after “also recorded” stand apart in the source; their conditions may differ. Read-outs that look alike come from different tables or passages of the source.",
  "data": [
    {"molecule": "C[C@]12CC[C@@H]3c4ccc(B(O)O)cc4C[C@@H](CCCCCCCCC[S+]([O-])CCCC(F)(F)C(F)(F)F)[C@H]3[C@@H]1CC[C@@H]2O", "note": "(some centres unmarked) [ZB716, fulvestrant-3-boronic acid]", "values": [
      {"measurement": "IC50", "setting": "CYP3A4; CYP3A4-M, marker substrate Midazolam", "result": "not observed; also recorded: No Inhibition"},
      {"measurement": "IC50", "setting": "CYP3A4; CYP3A4-T, marker substrate Testosterone, read-out: IC50", "result": 11.2, "unit": "µM"},
      {"measurement": "half-life at 2 µM", "setting": "CYP1A2; human", "result": "0.27 ± 0.0367", "unit": "h"},
      {"measurement": "Clint", "setting": "CYP1A2; recombinant CYP1A2, 2 µM ZB716", "result": "0.866 ± 0.120", "unit": "µL/min/pmol CYP"},
      {"measurement": "test-article-related mortality or moribundity", "setting": "[1]; PO 25, 100, 400 mg/kg/day for 4 weeks", "result": "no test-article-related mortality or moribundity"},
      {"measurement": "AUC(0-t)", "setting": "[1]; [2]", "result": 7700, "unit": "ng·h/mL"},
      {"measurement": "Cmax", "setting": "[1]; [2]", "result": 1310, "unit": "ng/mL"},
      {"measurement": "Tmax", "setting": "[1]; [2]", "result": 1, "unit": "h"},
      {"measurement": "AUC(0-t)", "setting": "[1]; [3]", "result": 8040, "unit": "ng·h/mL"},
      {"measurement": "Cmax", "setting": "[1]; [3]", "result": 1770, "unit": "ng/mL"},
      {"measurement": "Tmax", "setting": "[1]; [3]", "result": 1, "unit": "h"},
      {"measurement": "AUC(0-t)", "setting": "[1]; [4]", "result": 42200, "unit": "ng·h/mL"},
      {"measurement": "Cmax", "setting": "[1]; [4]", "result": 3200, "unit": "ng/mL"},
      {"measurement": "Tmax", "setting": "[1]; [4]", "result": 1, "unit": "h"},
      {"measurement": "AUC(0-t)", "setting": "[1]; [5]", "result": 24500, "unit": "ng·h/mL"},
      {"measurement": "Cmax", "setting": "[1]; [5]", "result": 3850, "unit": "ng/mL"},
      {"measurement": "Tmax", "setting": "[1]; [5]", "result": 1, "unit": "h"},
      {"measurement": "AUC(0-t)", "setting": "[1]; [6]", "result": 121000, "unit": "ng·h/mL"},
      {"measurement": "Cmax", "setting": "[1]; [6]", "result": 11900, "unit": "ng/mL"},
      {"measurement": "Tmax", "setting": "[1]; [6]", "result": 2, "unit": "h"},
      {"measurement": "AUC(0-t)", "setting": "[1]; [7]", "result": 51800, "unit": "ng·h/mL"},
      {"measurement": "Cmax", "setting": "[1]; [7]", "result": 4850, "unit": "ng/mL"},
      {"measurement": "Tmax", "setting": "[1]; [7]", "result": 2, "unit": "h"},
      {"measurement": "AUC(0-t)", "setting": "[1]; [8]", "result": 5400, "unit": "ng·h/mL"},
      {"measurement": "Cmax", "setting": "[1]; [8]", "result": 1040, "unit": "ng/mL"},
      {"measurement": "Tmax", "setting": "[1]; [8]", "result": 0.5, "unit": "h"},
      {"measurement": "AUC(0-t)", "setting": "[1]; [9]", "result": 4750, "unit": "ng·h/mL"},
      {"measurement": "Cmax", "setting": "[1]; [9]", "result": 1310, "unit": "ng/mL"},
      {"measurement": "Tmax", "setting": "[1]; [9]", "result": 0.5, "unit": "h"},
      {"measurement": "AUC(0-t)", "setting": "[1]; [10]", "result": 15700, "unit": "ng·h/mL"},
      {"measurement": "Cmax", "setting": "[1]; [10]", "result": 1870, "unit": "ng/mL"},
      {"measurement": "Tmax", "setting": "[1]; [10]", "result": 1, "unit": "h"},
      {"measurement": "AUC(0-t)", "setting": "[1]; [11]", "result": 20100, "unit": "ng·h/mL"},
      {"measurement": "Cmax", "setting": "[1]; [11]", "result": 2840, "unit": "ng/mL"},
      {"measurement": "Tmax", "setting": "[1]; [11]", "result": 0.5, "unit": "h"},
      {"measurement": "AUC(0-t)", "setting": "[1]; [12]", "result": 52400, "unit": "ng·h/mL"},
      {"measurement": "Cmax", "setting": "[1]; [12]", "result": 3400, "unit": "ng/mL"},
      {"measurement": "Tmax", "setting": "[1]; [12]", "result": 1, "unit": "h"},
      {"measurement": "AUC(0-t)", "setting": "[1]; [13]", "result": 50700, "unit": "ng·h/mL"},
      {"measurement": "Cmax", "setting": "[1]; [13]", "result": 4060, "unit": "ng/mL"},
      {"measurement": "Tmax", "setting": "[1]; [13]", "result": 2, "unit": "h"}
    ]}
  ]
}
